Results reported in ChEMBL document CHEMBL5247578, “Effective synthesis of benzimidazoles-imidazo[1,2-a]pyrazine conjugates: A comparative study of mono-and bis-benzimidazoles for antitumor activity” (Eur J Med Chem, 2019).

Legend:
Calf thymus DNA = assay: Binding affinity to calf thymus DNA assessed as gibbs free energy change at temperature of 308 K by Van't Hoff plot analysis; type: nucleic-acid assay; conditions: Bos taurus
SF-539 = assay: Antiproliferative activity against human SF-539 cells assessed as cell growth inhibition by measuring lethal concentration incubated for 48 hrs by sulforhodamine B assay; type: functional; conditions: read-out: LC50 (the source's name)
K562 = assay: Growth inhibition against human K562 cells assessed as total growth inhibitory concentration incubated for 48 hrs by sulforhodamine B assay; type: functional
LOX IMVI = assay: Antiproliferative activity against human LOX IMVI cells assessed as cell growth at 0.0001 M incubated for 48 hrs by SRB assay relative to control; type: functional; conditions: read-out: Activity

Q: `COc1ccc(-c2cn3ccnc3c(-c3ccc4ncn(C5CCCCC5)c4c3)n2)cc1` was tested. Which deltaG (Calf thymus DNA) did it give?
A: -5.85 kcal/mol

Q: What about the CC50 (SF-539) of the same molecule?
A: > 100 µM

Q: And the TGI (K562)?
A: > 100 µM

Q: And the growth at 100 µM (LOX IMVI)?
A: 19%
